Results reported in ChEMBL document CHEMBL1136345, “Heterocyclic ketones as inhibitors of histone deacetylase” (Bioorg Med Chem Lett, 2003).

test system: not listed separately; assay: Half-life was determined; assay type: ADME; conditions: human

Row | SMILES | half-life [min]
1 | O=C(CCCCCCOc1cccc(-c2ccccc2)c1)c1ncco1 | 12.6
2 | O=C(CCCCCCOc1ccc(-c2ccccc2)cc1)c1ncco1 | 10.8

biological target: Histone deacetylase; assay: In vitro inhibition of Histone deacetylase in K 562 erythroleukemia cells.; design: species or system Homo sapiens; conditions: not given

Row | SMILES | IC50 [µM]
3 | O=C(NCCCCCC(=O)c1ncco1)c1cc2ccccc2[nH]1 | 0.34
4 | O=C(CCCCCCOc1ccc(-c2ccccc2)cc1)C1=NCCO1 | 1.8
5 | O=C(CCCCCCNc1ccc2ccccc2c1)c1ncco1 | 0.43
6 | O=C(CCCCCC(=O)c1ncco1)Nc1cccc(-c2ccccc2)c1 | 0.31
7 | O=C(CCCCCCC(=O)c1ncco1)Nc1ccc(Cl)cc1 | 0.32
8 | O=C(CCCCCCC(=O)c1ncco1)Nc1cccc(-c2ccccc2)c1 | 0.06
9 | O=C(CCCCCCOc1ccc2ccccc2c1)c1ncco1 | 0.52
10 | O=C(CCCCCCSc1ccc2ccccc2c1)c1ncco1 | 0.54
11 | O=C(CCCCCCS(=O)(=O)c1ccc2ccccc2c1)c1ncco1 | 0.61
12 | O=C(CCCCCC(=O)c1ncco1)NCc1ccc(Cl)cc1 | 6.4
13 | COc1ccc(-c2csc(NC(=O)CCCCCCC(=O)c3ncco3)n2)cc1 | 0.03
14 | O=C(CCCCCCOc1cccc(-c2ccccc2)c1)c1ncco1 | 0.62
15 | O=C(CCCCCCOc1ccc(-c2ccccc2)cc1)c1nnn[nH]1 | 2
16 | O=C(CCCCCCC(=O)c1ncco1)Nc1ccc(Oc2ccccc2)cc1 | 0.58
17 | O=C(CCCCCCOc1ccc(-c2ccccc2)cc1)c1ncco1 | 1.1
18 | O=C(CCCCCC(=O)c1ncco1)Nc1ccc(Cl)cc1 | 1.5
19 | O=C(CCCCC/C=C/c1ccc(-c2ccccc2)cc1)c1ncco1 | 0.99
20 | O=C(NCCCCCCC(=O)c1ncco1)c1cc2ccccc2[nH]1 | 0.09

biological target: Histone deacetylase; design: species or system Homo sapiens; conditions: not given

Row | IC50 [µM] | SMILES
21 | 0.11 | CNC(=O)C(=O)CCCCCCOc1ccc(-c2ccccc2)cc1

test system: not listed separately; assay: Anti-proliferative activity against MDA-435 cells mediated by HDAC inhibition; assay type: functional, cell-based; conditions: Homo sapiens, MDA435

Row | SMILES | IC50 [µM]
22 | COc1ccc(-c2csc(NC(=O)CCCCCCC(=O)c3ncco3)n2)cc1 | 2.3

biological target: Histone deacetylase; assay: Inhibitory activity against Histone deacetylase (HDAC) in K 562 erythroleukemia cells (Radioactivity based HDAC assay); design: species or system Homo sapiens; conditions: not given

Row | IC50 [µM] | SMILES
23 | > 10 | O=C(CCCCCC(=O)c1ncco1)NNc1ccc(Cl)cc1
24 | > 50 | O=C(CCCCCCOc1ccc(-c2ccccc2)cc1)c1nccs1
25 | > 50 | O=C(CCCCCCOc1ccc(-c2ccccc2)cc1)c1ncc[nH]1
26 | > 50 | Cn1cncc1C(=O)CCCCCCOc1ccc(-c2ccccc2)cc1
27 | > 50 | O=C(CCCCCCOc1ccc(-c2ccccc2)cc1)c1nc2ccccc2o1
28 | > 50 | O=C(CCCCCCOc1ccc(-c2ccccc2)cc1)c1nc2ncccc2o1
29 | > 50 | Cn1ccnc1C(=O)CCCCCCOc1ccc(-c2ccccc2)cc1
30 | > 50 | O=C(CCCCCCOc1ccc(-c2ccccc2)cc1)c1ccccn1
31 | 1.83 | O=C(CCCCCCC(=O)c1ncco1)NNC(=O)c1ccc(-c2ccccc2)cc1

The remaining lines, values behind:

Row | SMILES | IC50 [µM]
32 | OC(CCCCCCOc1cccc(-c2ccccc2)c1)c1ncco1 (centres undefined) | > 50
33 | O=C(c1ncco1)[C@@H]1C[C@H]1CCCCOc1ccc(Oc2ccccc2)cc1 | > 50
34 | O=C(CCCCCCc1nnc(-c2ccc(-c3ccccc3)cc2)o1)c1ncco1 | 0.25
